These results are taken from publication PMC10754035 (Cancer Research Communications, 2023).

Read-outs that look alike come from different tables or passages of the source.

Test [1] concerns the target T1, KRAS G12D (Homo sapiens, UniProt P01116, G12D).
T1 construct: Human His-tagged KRAS4B (1-169) G12D, G12V and G12C were custom synthesized; 6His (pET-28a(+)-TEV vector) (N); host or cells: E. coli BL21 star (DE3)
Nature of the test: Isothermal titration calorimetry, KRAS G12D. Type of test: binding. To be noted: ITC, KRAS G12D-NE (non-exchanged), 25°C. The method, then:
All isothermal titration calorimetry (ITC) experiments were carried out at 25°C on a MicroCal PEAQ ITC Automated (Malvern). […] The final ITC buffer in the syringe and the cell was 25 mmol/L Tris HCl (pH 8.0), 100 mmol/L NaCl, 0.1 mmol/L DTT, 5% glycerol, 1% NP40, 5 mmol/L MgCl2, and 5% DMSO. ITC titration experiments were carried out with 19 injections, 2 µL per injection, and 150 seconds spacing between each injection. Reference cell power was set to 5 µcal/second and stirring speed was 750 rpm. Data were analyzed using a one site binding model with the Malvern analysis software. All ITC experiments were performed at the biophysical facility at the Institute for Structural Biology, Drug Discovery and Development (ISB3D) at Virginia Commonwealth University (Richmond, VA) and the Massey Cancer Center.
Expression and purification of RAS proteins: Human His-tagged KRAS4B (1-169) G12D, G12V and G12C were custom synthesized and cloned into pET-28a(+)-TEV vector to generate pET-28a(+)-6His-KRAS (1-169) plasmids by GenScript USA Inc., Piscataway, NJ. The proteins were expressed and purified as described below. The full length biotinylated human KRAS4B G12D (His6-MBP-tev-Avi-Hs.KRAS4b G12D (2-188) protein was obtained from Dr Dominic Esposito and Dr. William Gillette from the NCI RAS Initiative at the Frederick National Laboratory. Avi-KRAS4b (2-188) G12D was cloned, expression and purified as described previously (1,2).
Expression and purification of KRAS proteins: BL21 star (DE3) competent cells were transformed with pET-28a(+)-6His-KRAS (1-169) plasmids from GenScript, and the resulting colonies were picked under kanamycin selection. The colonies were grown in LB broth and induced with 0.5mM IPTG for 4 hours when OD reached 0.6-0.8. Bacteria pellets were lysed in 25mM Tris HCL (pH7.8) buffer containing 300mM NaCl, 5mM MgCl2, 10mM Imidazole, 5% Glycerol and 3mM β-mercaptoethanol. Membrane filter-cleared lysate supernatants were incubated with HisPur Ni-NTA resin (Thermo scientific) in an oscillating platform at 4°C for 50 minutes. Econo disposable column (Bio-Rad) was used for washing the beads 3 times with 25mM Tris HCl (pH7.8), 300mM NaCl, 5mM MgCl2, 5% Glycerol buffer with 10mM, 20mM and 30mM Imidazole, respectively. Elution was carried with 25mM Tris HCl (pH7.8), 300mM NaCl, 5mM MgCl2, 5% Glycerol and 500mM Imidazole buffer. After confirming the eluted fraction purity on SDS-PAGE gel, proteins fractions were further purified using HiLoad 16/600 superdex 75 PG column in AKTA system. Protein was eluted in 25mM Tris HCL (pH7.8), 150mM NaCl, 5mM MgCl2 and 0.5mM DTT. KRAS protein aliquots were stored in -80°C.
GCP and NH-GDP nucleotide exchange for ITC: KRAS G12D protein in 25 mM Tris HCL (pH 8.0), 1 mM Calcium Chloride Dihydrate and 200 mM (NH4)2SO4 buffer was added to alkaline phosphatase beads (Sigma, USA) (2U per mg of KRAS) and to non-hydrolysable nucleotide analogs, GCP (β,γ-Methyleneguanosine 5′-triphosphate sodium salt, Sigma, USA) or GDP-NH (Guanosine 5′-[β-thio]diphosphate trilithium salt, Sigma, USA) in molar ratio of 10:1 (Nucleotide:KRAS). The reaction mixture was incubated with gentle rotation for 14-18 hrs at 4 °C. After incubation, the mixture was centrifuged at 1500 g, 4°C to remove the alkaline phosphatase beads. MgCl2 (20 mM) and an additional amount of GCP or NH-GDP in molar ratio of 5:1 (Nucleotide:KRAS) were added, and incubated at room temperature for 1 hr. After incubation, nucleotide exchanged protein was desalted and buffer exchanged at 4 °C using PD-10 column (Catalog # 17085101, GE Healthcare, USA), into a final buffer containing 25 mM Tris HCL (pH 7.5), 150 mM NaCl, 5 mM MgCl2 and 0.5 mM DTT. Buffer exchanged protein was concentrated using Amicon ultra centrifugal filter-10K cut off (Catalog # UFC501024, MilliporeSigma, USA). The protein concentration was measured using Pierce Rapid GOLD BCA Protein Assay Kit (Thermo Scientific, USA) and aliquots were stored in -80°C.

The target of test [2] is T2, GTP-KRAS G12D binding to GST-RBD (Homo sapiens, UniProt P01116, G12D).
T2 construct: Human His-tagged KRAS4B (1-169) G12D, G12V and G12C were custom synthesized; Addgene (GST-RBD) Addgene 13338; host or cells: E. coli BL21 star (DE3)
Nature of the test: KRAS G12D/GST-RBD pulldown assay. Type of test: biochemical. Particulars: for IC50: GST pulldown, Fig. 2 legend, read-out: IC50, inhibition of GTP-KRAS G12D/GST-RBD binding. As to the method:
For pulldown experiment, KRAS G12D was preloaded with either GTP or GDP as described above. GDP- or GTP-bound KRAS G12D proteins (250 nmol/L in 100 µL) were then incubated with indicated compound at 37°C for 15–16 minutes. GST-RBD (final 500 nmol/L) was then added and the mixture rocked at 37°C for 1 hour. Pierce glutathione agarose beads (Thermo Fisher Scientific; 20 µL) were then added and the mixture rocked at 37°C for 1 hour. The beads were then washed and the samples were processed for SDS-PAGE and Western blotting with respective antibodies to check the interaction between KRAS-GTP and GST-RBD proteins in presence or absence of the compounds. All the protein dilutions and washes were carried out in a buffer containing 25 mmol/L Tris (pH 7.5), 100 mmol/L NaCl, 5 mmol/L MgCl2, 1% NP-40, 5% glycerol, and 0.1 mmol/L DTT.
Expression and purification of GST-RBD: The Raf1-GST-RBD in pGEX-2T vector in DH5α cells was obtained from Addgene (Raf1 GST RBD 1-149, Plasmid catalog # 13338). GST-RBD plasmid DNA was transformed in BL21*(DE3) bacteria, streaked on agar plate to obtain the colonies . A distinct colony was picked and grown in ampicillin selection media to OD600 of around 0.6-0.8 before induction with IPTG (0.5 mM). Bacterial pellet was resuspended with lysis buffer (50 mM Tris HCL (pH 7.5), 150 mM NaCl, 0.5% Triton X-100, 5 mM MgCl2, 1 mM DTT, 10% Glycerol, 3 mM β-mercaptoethanol) and homogenized. The homogenized lysate was centrifuged at 14000 rpm at 4 °C for 40 min and the resulting supernatant was collected and filtered. The filtered supernatant was incubated with glutathione agarose (Pierce^TM) beads (Thermo Scientific, USA) at 4 °C for 60 min. After incubation, beads and lysate suspension was passed through Bio-Rad Econo column. The beads were washed using lysis buffer (as described above), and the GST-RBD eluted with elution buffer (50 mM Tris HCL (pH 7.5), 150 mM NaCl, 0.5% Triton X-100, 5 mM MgCl2, 1 mM DTT, 10% Glycerol, 10 mM Glutathione). Eluted GST-RBD protein fractions were buffer exchanged into 25 mM Tris (pH 7.5), 150 mM NaCl, 0.5 mM DTT and 5 mM MgCl2 buffer and stored at -80°C.
GTP and GDP nucleotide exchange for GST-RBD pull down: KRAS protein was exchanged with GTP (Sigma, USA) and GDP (Sigma, USA) using EDTA- loading procedure. The RAS proteins (235 µM final) were incubated with ~40-fold molar excess of EDTA (10 mM final), and ~45-fold molar excess of either GDP or GTP for 90 min at 37°C. After incubation, the sample was kept on ice for 10 minutes before incubating with ice-cooled 1M MgCl2 (65 mM final) for 20 minutes to stop the reaction. To remove excess unbound nucleotide, EDTA and magnesium, the proteins were re-buffered using PD10 columns (GE Life Sciences) into (25 mM Tris (pH 7.5), 150 mM NaCl, 0.5 mM DTT and 5 mM MgCl2) buffer and concentrated using Millipore spin ultrafiltration devices (10,000 Da cut off, 4,000 x g). The protein concentration was measured using Pierce Rapid GOLD BCA Protein Assay Kit (Thermo Scientific, USA) and aliquots were stored in -80°C.

For test [3], the target named is T1, KRAS G12D. More on the design: method as in PMID 31332011. Particulars: ITC; cited from earlier work.

T2 sequence (P01116 1-169 isoform P01116-2 G12D): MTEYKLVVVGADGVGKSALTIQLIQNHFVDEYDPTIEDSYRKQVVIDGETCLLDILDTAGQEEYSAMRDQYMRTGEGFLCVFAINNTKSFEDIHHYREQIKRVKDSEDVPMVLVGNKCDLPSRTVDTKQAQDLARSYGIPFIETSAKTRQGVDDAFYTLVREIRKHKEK
T1 sequence (P01116 1-169 isoform P01116-2 G12D): as above

Take `C=C1C[C@]23C[C@@]1(O)CC[C@H]2[C@@]12C=CC(=O)[C@@](C)(C(=O)O1)[C@H]2[C@@H]3C(=O)NCc1ccccc1` [IIA-15D]: on KRAS G12D [1], the Kd worked out at 11.6 µM. In addition, the IC50 in test [2] came out at 10.8 µM.
As to `C=C1C[C@]23C[C@@]1(OC(C)=O)CC[C@H]2[C@@]12C=CC(=O)[C@@](C)(C(=O)O1)[C@H]2[C@@H]3C(=O)OC` [IB-21J], binding at KRAS G12D [1] was characterised by a dissociation constant (Kd) of 4.81 µM. Further, in test [2] (GST pulldown IC50), the “loss of potency relative to KRB-456” value was “about 10 fold”. Further, the IC50 in test [2] is 2.02 µM.
`COC(=O)C1C2C3(C)C(=O)C=CC2(OC3=O)C2CCC3(CI)CC12CC3=O` (centres unmarked) [IB-21G]: binding on KRAS G12D [1] was characterised by a dissociation constant (Kd) of 0.641 µM. In addition, the IC50 in test [2] turned out to be 0.36 µM.
Regarding `Cn1cnc(Cn2ccc3ccc(CNCc4[nH]c5ccccc5c4[C@H]4NC(=O)c5ccc(O)cc54)cc32)c1` [BI-2852], the Kd at KRAS G12D [3] was 0.74 µM.
